Results published in ChEMBL document CHEMBL1833889, “Ursolic acid is a PPAR-α agonist that regulates hepatic lipid metabolism” (Bioorg Med Chem Lett, 2011).
Values belong to the compound of their own block, whether it stands above or below them. Active and inactive are the calls of the source. The rule behind the calls is not given here.

Columns and labels:
[1] = target: T1, Peroxisome proliferator-activated receptor alpha (Homo sapiens, UniProt Q07869); assay: (§1) Binding affinity to histidine-tagged human PPARalpha-LBD assessed as recruitment of co-activator peptide fluorescein-labeled PGC1alpha after 2 hrs by TR-FRET assay
T1 sequence (Q07869 whole entry): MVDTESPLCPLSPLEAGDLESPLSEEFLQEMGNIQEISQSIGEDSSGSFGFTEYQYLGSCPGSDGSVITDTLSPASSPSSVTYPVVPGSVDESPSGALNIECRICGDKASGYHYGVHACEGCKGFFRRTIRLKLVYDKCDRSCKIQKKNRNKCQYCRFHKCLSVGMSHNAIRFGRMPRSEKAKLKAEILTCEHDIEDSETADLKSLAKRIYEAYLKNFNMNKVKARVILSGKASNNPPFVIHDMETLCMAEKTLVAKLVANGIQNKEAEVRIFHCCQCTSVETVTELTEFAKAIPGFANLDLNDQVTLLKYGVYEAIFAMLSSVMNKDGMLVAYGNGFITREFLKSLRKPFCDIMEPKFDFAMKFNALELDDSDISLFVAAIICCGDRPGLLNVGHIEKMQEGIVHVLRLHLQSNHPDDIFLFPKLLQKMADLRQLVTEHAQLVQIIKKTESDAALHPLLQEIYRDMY

[2] = target: T2, Peroxisome proliferator-activated receptor alpha (Homo sapiens) (UniProt Q07869); assay: as §1
T2 sequence (whole entry): T1 sequence (Q07869 whole entry)

[3] = target: T2, Peroxisome proliferator-activated receptor alpha (Homo sapiens); assay: Binding affinity to histidine-tagged human PPARalpha-LBD by SPR analysis
HepG2 [4] = assay: Induction of BODIPY-labeled 4,4-difluoro-5-methyl-4-bora-3a,4a-diaza-s-indacene-3-dodecanoic acid uptake in human HepG2 cells after 1 min by FACS analysis; assay type: functional, cell-based
[5] = target: T2, Peroxisome proliferator-activated receptor alpha (Homo sapiens); assay: Agonist activity at PPARalpha in human HepG2 cells assessed as up-regulation of PPARalpha mRNA expression at 20 uM by quantitative PCR analysis; assay type: functional, cell-based
[6] = target: T2, Peroxisome proliferator-activated receptor alpha (Homo sapiens); assay: Agonist activity at PPARalpha in human HepG2 cells assessed as up-regulation of FATP4 mRNA expression at 80 uM by quantitative PCR analysis; assay type: functional, cell-based
[7] = target: T2, Peroxisome proliferator-activated receptor alpha (Homo sapiens); assay: Agonist activity at PPARalpha in human HepG2 cells assessed as up-regulation of PPARalpha mRNA expression at 5 uM by quantitative PCR analysis; assay type: functional, cell-based
[8] = target: T2, Peroxisome proliferator-activated receptor alpha (Homo sapiens); assay: Agonist activity at PPARalpha in human HepG2 cells assessed as up-regulation of acyl-CoA synthetase mRNA expression at 5 to 80 uM by quantitative PCR analysis; assay type: functional, cell-based
[9] = target: T2, Peroxisome proliferator-activated receptor alpha (Homo sapiens); assay: Agonist activity at PPARalpha in human HepG2 cells assessed as up-regulation of ACOX mRNA level at 80 uM by quantitative PCR analysis; assay type: functional, cell-based
HepG2 [10] = assay: Hypolipidemic activity in human HepG2 cells assessed as decrease in cholesterol level at 5 uM by fluorescence-based method relative to control; assay type: functional; set-up: scale not given: the % may be the effect or the level left
HepG2 [11] = assay: Induction of BODIPY-labeled 4,4-difluoro-5-methyl-4-bora-3a,4a-diaza-s-indacene-3-dodecanoic acid uptake in human HepG2 cells at 80 uM after 1 min by FACS analysis; assay type: functional
[12] = target: T2, Peroxisome proliferator-activated receptor alpha (Homo sapiens); assay: Agonist activity at PPARalpha in human HepG2 cells assessed as down-regulation of SREBP1c mRNA expression at 80 uM by quantitative PCR analysis; assay type: functional, cell-based
[13] = target: T2, Peroxisome proliferator-activated receptor alpha (Homo sapiens); assay: Agonist activity at PPARalpha in human HepG2 cells assessed as up-regulation of carnitine palmitoyl transferase mRNA expression at 80 uM by quantitative PCR analysis relative to control; assay type: functional, cell-based
[14] = target: T2, Peroxisome proliferator-activated receptor alpha (Homo sapiens); assay: Agonist activity at PPARalpha in human HepG2 cells assessed as effect on LPL mRNA expression at 5 to 80 uM by quantitative PCR analysis; assay type: functional, cell-based
HepG2 [15] = assay: Hypolipidemic activity in human HepG2 cells assessed as decrease in triglyceride level at 20 uM relative to control; assay type: functional; set-up: scale not given: the % may be the effect or the level left
[16] = target: T1, Peroxisome proliferator-activated receptor alpha; assay: (§2) Agonist activity at human recombinant PPARalpha expressed in HepG2 cells co-transfected with pGL3-PPRE3-TK-luc reporter assessed as […] after 24 hrs by luciferase based transactivation assay; assay type: functional, cell-based
[17] = target: T2, Peroxisome proliferator-activated receptor alpha (Homo sapiens); assay: as §2; assay type: functional, cell-based
[18] = target: T2, Peroxisome proliferator-activated receptor alpha (Homo sapiens); assay: Agonist activity at PPARalpha in human HepG2 cells assessed as up-regulation of PPARalpha mRNA expression at 80 uM by quantitative PCR analysis; assay type: functional, cell-based
[19] = target: T2, Peroxisome proliferator-activated receptor alpha (Homo sapiens); assay: Agonist activity at PPARalpha in human HepG2 cells assessed as up-regulation of FATP4 mRNA expression at 20 uM by quantitative PCR analysis; assay type: functional, cell-based
HepG2 [20] = assay: Hypolipidemic activity in human HepG2 cells assessed as decrease in triglyceride level at 5 uM relative to control; assay type: functional; set-up: scale not given: the % may be the effect or the level left
[21] = target: T2, Peroxisome proliferator-activated receptor alpha (Homo sapiens); assay: Agonist activity at PPARalpha in human HepG2 cells assessed as down-regulation of FAS mRNA expression at 80 uM by quantitative PCR analysis; assay type: functional, cell-based
[22] = target: T2, Peroxisome proliferator-activated receptor alpha (Homo sapiens); assay: Agonist activity at PPARalpha in human HepG2 cells assessed as down-regulation of SCD1 mRNA expression at 80 uM by quantitative PCR analysis; assay type: functional, cell-based
HepG2 [23] = assay: Hypolipidemic activity in human HepG2 cells assessed as decrease in cholesterol level at 80 uM by fluorescence-based method relative to control; assay type: functional; set-up: scale not given: the % may be the effect or the level left
[24] = target: T2, Peroxisome proliferator-activated receptor alpha (Homo sapiens); assay: Agonist activity at human recombinant PPARalpha expressed in HepG2 cells co-transfected with pGL3-PPRE3-TK-luc reporter assessed as […] at 80 uM after 24 hrs by luciferase based transactivation assay; assay type: functional, cell-based
[25] = target: T2, Peroxisome proliferator-activated receptor alpha (Homo sapiens); assay: Agonist activity at human recombinant PPARalpha expressed in HepG2 cells assessed as binding of activated PPARalpha to the PPRE at 20 uM by ELISA-based assay; assay type: cell-based
HepG2 [26] = assay: Hypolipidemic activity in human HepG2 cells assessed as decrease in triglyceride level at 80 uM relative to control; assay type: functional; set-up: scale not given: the % may be the effect or the level left
HepG2 [27] = assay: Hypolipidemic activity in human HepG2 cells assessed as decrease in cholesterol level at 20 uM by fluorescence-based method relative to control; assay type: functional; set-up: scale not given: the % may be the effect or the level left

EC50 [1]: 4.5 µM | Activity [2]: Dose-dependent effect | Activity [3]: Active
SMILES: CC(C)(Oc1ccc(C(=O)c2ccc(Cl)cc2)cc1)C(=O)O [FENOFIBRIC ACID]
Activity (HepG2 [4]): Dose-dependent effect

Activity [5]: 156% | Activity [6]: 259% | Activity [7]: 134% | Activity [8]: Active | Activity [9]: 24% | Activity [12]: 28% | Activity [13]: 1020% | Activity [2]: inactive | Activity [14]: inactive | Activity [3]: inactive | EC50 [16]: 41.3 µM | Activity [17]: Dose-dependent effect | Activity [18]: 195% | Activity [19]: 185% | Activity [21]: 23% | Activity [22]: 15% | Activity [24]: 214% | Activity [25]: 46%
SMILES: C[C@H]1[C@H](C)CC[C@]2(C(=O)O)CC[C@]3(C)C(=CC[C@@H]4[C@@]5(C)CC[C@H](O)C(C)(C)[C@@H]5CC[C@]43C)[C@H]12 [URSOLIC ACID]
Activity (HepG2 [10]): 11% | Activity (HepG2 [11]): 108.7% | Activity (HepG2 [15]): 38.8% | Activity (HepG2 [20]): 23.5% | Activity (HepG2 [23]): 26.5% | Activity (HepG2 [26]): 44.7% | Activity (HepG2 [27]): 18.9%
